Results: the kinase profiling compilation of Christmann-Franck et al. (2016)

Legend:
Test in all cases: KINOMEscan competition binding
Settings in all cases: compound 10.0 µM
CAMK4 (human) = CAMK4 (human) (UniProt Q16566)
PTK6 (human) = PTK6 (human) (UniProt Q13882)
CHUK (human) = CHUK (human) (UniProt O15111)
PIM3 (human) = PIM3 (human) (UniProt Q86V86)
ZAP70 (human) = ZAP70 (human) (UniProt P43403)
MAPK10 (human) = MAPK10 (human) (UniProt P53779)
INSRR (human) = INSRR (human) (UniProt P14616)
MAPK1 (human) = MAPK1 (human) (UniProt P28482)
PHKG2 (human) = PHKG2 (human) (UniProt P15735)
HCK (human) = HCK (human) (UniProt P08631)
FLT4 (human) = FLT4 (human) (UniProt P35916)
DCLK3 (human) = DCLK3 (human) (UniProt Q9C098)
PTK2B (human) = PTK2B (human) (UniProt Q14289)
CAMK2D (human) = CAMK2D (human) (UniProt Q13557)
PAK3 (human) = PAK3 (human) (UniProt O75914)
STK17B (human) = STK17B (human) (UniProt O94768)
PAK7 (human) = PAK7 (human) (UniProt Q9P286)
TNIK (human) = TNIK (human) (UniProt Q9UKE5)
SRMS (human) = SRMS (human) (UniProt Q9H3Y6)
TAOK1 (human) = TAOK1 (human) (UniProt Q7L7X3)
TNK2 (human) = TNK2 (human) (UniProt Q07912)
SRPK2 (human) = SRPK2 (human) (UniProt P78362)
MINK1 (human) = MINK1 (human) (UniProt Q8N4C8)
CHEK1 (human) = CHEK1 (human) (UniProt O14757)
CDC2L2 (human) = CDC2L2 (human) (UniProt Q9UQ88)
LTK (human) = LTK (human) (UniProt P29376)
PRKAA1 (human) = PRKAA1 (human) (UniProt Q13131)
STK32C (human) = STK32C (human) (UniProt Q86UX6)
MAPK12 (human) = MAPK12 (human) (UniProt P53778)
ADCK4 (human) = ADCK4 (human) (UniProt Q96D53)
EPHA1 (human) = EPHA1 (human) (UniProt P21709)
MST1R (human) = MST1R (human) (UniProt Q04912)
MAPK11 (human) = MAPK11 (human) (UniProt Q15759)
CSNK1A1L (human) = CSNK1A1L (human) (UniProt Q8N752)
MAPK8 (human) = MAPK8 (human) (UniProt P45983)
MLTK (human) = MLTK (human) (UniProt Q9NYL2)
IGF1R (human) = IGF1R (human) (UniProt P08069)
AURKA (human) = AURKA (human) (UniProt O14965)
MAP4K4 (human) = MAP4K4 (human) (UniProt O95819)
MYLK2 (human) = MYLK2 (human) (UniProt Q9H1R3)

Sequence of TAOK1 (human) (Q7L7X3 whole entry, looked up): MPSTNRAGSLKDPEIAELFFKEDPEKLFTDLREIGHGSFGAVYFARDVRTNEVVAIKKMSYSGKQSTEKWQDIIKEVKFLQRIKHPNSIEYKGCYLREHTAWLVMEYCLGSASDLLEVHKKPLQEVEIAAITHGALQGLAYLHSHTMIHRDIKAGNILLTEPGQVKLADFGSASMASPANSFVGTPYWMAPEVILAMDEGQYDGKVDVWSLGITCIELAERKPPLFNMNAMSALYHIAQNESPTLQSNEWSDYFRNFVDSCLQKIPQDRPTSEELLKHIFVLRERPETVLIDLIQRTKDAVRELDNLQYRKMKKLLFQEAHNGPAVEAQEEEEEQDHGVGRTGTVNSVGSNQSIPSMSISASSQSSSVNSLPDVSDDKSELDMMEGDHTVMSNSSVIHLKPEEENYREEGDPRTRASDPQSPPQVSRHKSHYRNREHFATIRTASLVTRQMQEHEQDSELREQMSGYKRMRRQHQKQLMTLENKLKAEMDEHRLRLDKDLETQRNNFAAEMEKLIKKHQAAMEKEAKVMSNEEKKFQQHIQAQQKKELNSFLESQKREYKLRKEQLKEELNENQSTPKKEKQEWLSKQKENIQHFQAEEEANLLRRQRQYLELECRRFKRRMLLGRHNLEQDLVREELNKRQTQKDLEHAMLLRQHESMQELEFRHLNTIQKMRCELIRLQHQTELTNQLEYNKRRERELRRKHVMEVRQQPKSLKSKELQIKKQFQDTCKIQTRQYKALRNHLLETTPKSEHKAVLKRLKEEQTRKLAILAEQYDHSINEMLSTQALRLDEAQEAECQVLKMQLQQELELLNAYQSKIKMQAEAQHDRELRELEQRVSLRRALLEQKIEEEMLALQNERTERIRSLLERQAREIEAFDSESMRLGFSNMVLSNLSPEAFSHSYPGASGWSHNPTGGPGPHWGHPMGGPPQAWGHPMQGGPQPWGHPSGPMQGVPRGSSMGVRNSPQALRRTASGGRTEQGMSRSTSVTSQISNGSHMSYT
Sequence of MAPK10 (human) (P53779 whole entry, looked up): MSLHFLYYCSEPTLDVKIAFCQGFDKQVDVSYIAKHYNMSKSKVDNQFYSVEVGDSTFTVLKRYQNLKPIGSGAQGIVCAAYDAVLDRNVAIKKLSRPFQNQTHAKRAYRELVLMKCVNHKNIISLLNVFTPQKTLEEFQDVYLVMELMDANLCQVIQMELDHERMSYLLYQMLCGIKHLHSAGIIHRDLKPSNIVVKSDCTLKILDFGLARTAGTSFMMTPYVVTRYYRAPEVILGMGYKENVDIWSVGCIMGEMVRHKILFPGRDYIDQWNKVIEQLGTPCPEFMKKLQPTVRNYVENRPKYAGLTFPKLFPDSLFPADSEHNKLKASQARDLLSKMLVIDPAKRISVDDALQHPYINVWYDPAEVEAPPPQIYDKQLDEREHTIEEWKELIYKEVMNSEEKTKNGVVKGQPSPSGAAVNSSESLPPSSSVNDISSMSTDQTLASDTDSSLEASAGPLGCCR
Sequence of TNK2 (human) (Q07912 whole entry, looked up): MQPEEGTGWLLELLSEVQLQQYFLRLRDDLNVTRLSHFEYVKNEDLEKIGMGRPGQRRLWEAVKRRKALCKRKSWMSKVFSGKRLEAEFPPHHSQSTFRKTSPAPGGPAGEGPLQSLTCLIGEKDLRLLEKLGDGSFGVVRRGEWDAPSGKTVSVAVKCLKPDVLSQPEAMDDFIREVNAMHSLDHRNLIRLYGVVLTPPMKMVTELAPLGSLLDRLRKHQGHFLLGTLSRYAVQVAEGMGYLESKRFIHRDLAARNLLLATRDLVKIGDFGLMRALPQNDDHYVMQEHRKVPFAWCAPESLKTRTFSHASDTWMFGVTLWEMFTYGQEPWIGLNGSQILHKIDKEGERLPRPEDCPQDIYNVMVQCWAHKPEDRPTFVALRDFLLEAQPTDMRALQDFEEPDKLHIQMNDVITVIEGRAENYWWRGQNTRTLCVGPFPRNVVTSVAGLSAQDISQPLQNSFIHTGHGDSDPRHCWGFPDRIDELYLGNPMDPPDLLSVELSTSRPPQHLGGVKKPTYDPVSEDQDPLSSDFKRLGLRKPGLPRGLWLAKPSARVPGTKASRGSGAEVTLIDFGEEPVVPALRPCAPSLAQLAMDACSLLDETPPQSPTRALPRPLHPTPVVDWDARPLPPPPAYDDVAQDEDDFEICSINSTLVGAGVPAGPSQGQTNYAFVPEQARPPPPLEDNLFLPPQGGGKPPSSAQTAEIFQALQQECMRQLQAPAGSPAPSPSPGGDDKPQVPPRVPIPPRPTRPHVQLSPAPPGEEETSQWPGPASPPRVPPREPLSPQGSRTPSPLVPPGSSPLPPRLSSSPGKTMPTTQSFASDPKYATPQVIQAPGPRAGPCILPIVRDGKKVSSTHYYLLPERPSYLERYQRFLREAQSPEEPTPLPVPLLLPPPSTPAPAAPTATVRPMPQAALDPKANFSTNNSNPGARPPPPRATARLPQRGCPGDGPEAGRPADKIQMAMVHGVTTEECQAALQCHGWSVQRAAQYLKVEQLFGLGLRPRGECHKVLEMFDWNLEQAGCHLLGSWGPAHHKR
Sequence of MAP4K4 (human) (O95819 whole entry, looked up): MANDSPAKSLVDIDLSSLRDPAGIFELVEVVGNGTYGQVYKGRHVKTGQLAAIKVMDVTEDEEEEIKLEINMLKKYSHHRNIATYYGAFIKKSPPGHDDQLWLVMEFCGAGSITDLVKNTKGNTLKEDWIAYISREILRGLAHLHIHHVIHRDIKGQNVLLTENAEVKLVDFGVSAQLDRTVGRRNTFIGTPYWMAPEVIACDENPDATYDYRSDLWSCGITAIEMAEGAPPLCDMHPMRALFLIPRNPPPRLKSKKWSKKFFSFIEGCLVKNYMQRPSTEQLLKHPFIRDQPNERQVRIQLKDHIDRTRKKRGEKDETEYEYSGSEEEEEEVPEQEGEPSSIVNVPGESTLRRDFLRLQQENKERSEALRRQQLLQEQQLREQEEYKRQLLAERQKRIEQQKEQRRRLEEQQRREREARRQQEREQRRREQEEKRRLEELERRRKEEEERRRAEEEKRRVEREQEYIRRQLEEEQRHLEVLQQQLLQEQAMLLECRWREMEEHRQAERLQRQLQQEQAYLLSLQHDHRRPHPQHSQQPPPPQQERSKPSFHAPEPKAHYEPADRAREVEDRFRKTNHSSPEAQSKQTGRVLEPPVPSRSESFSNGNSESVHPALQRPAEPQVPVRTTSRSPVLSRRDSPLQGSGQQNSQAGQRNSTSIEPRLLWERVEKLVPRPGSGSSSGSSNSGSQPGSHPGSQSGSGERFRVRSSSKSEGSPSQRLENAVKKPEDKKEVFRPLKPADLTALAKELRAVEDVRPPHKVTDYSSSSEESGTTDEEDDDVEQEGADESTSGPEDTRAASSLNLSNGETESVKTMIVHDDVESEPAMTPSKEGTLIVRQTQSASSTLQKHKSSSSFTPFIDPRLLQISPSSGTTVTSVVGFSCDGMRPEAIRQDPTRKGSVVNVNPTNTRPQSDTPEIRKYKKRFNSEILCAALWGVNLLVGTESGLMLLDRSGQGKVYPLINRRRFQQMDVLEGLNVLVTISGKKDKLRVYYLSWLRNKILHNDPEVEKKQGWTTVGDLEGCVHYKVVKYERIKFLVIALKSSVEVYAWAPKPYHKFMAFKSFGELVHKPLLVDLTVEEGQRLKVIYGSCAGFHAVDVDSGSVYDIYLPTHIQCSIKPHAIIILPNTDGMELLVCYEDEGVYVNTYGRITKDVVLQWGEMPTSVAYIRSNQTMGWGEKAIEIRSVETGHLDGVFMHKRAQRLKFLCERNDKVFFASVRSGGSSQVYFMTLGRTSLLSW
Sequence of DCLK3 (human) (Q9C098 whole entry, looked up): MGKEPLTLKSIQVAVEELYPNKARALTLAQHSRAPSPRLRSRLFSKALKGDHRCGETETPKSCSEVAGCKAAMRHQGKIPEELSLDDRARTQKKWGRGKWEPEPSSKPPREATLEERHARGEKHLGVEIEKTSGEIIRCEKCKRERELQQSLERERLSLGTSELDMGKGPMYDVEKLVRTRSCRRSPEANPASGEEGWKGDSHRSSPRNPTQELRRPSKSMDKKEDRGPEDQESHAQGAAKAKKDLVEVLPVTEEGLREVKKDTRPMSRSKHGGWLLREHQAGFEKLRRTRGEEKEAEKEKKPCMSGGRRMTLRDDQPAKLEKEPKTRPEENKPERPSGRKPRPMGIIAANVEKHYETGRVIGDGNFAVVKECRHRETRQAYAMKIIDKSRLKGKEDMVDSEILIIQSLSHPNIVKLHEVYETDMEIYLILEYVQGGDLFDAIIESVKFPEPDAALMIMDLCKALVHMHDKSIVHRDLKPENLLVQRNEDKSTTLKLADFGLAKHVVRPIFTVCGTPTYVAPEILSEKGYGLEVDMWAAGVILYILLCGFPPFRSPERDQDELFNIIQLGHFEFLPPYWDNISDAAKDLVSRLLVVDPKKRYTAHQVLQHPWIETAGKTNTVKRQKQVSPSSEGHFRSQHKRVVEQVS
Sequence of PRKAA1 (human) (Q13131 whole entry, looked up): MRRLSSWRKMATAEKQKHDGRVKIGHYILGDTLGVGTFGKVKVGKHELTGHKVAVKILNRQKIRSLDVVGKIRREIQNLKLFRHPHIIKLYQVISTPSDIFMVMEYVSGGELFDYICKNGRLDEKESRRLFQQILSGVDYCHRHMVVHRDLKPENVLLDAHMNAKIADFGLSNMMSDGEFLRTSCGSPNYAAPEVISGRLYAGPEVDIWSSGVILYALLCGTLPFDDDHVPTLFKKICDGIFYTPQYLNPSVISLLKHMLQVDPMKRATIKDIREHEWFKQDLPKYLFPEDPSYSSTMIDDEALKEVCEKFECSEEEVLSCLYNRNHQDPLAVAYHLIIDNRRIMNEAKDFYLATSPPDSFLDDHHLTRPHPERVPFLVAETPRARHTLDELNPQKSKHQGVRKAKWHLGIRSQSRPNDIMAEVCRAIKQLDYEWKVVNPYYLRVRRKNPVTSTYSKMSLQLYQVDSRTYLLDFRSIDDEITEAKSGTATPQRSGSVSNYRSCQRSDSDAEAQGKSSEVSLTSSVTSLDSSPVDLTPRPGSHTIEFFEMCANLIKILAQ

Row | SMILES | kinase still bound, per cent of control (CAMK4 (human)) [%] | kinase still bound, per cent of control (PTK6 (human)) [%] | kinase still bound, per cent of control (CHUK (human)) [%] | kinase still bound, per cent of control (PIM3 (human)) [%] | kinase still bound, per cent of control (ZAP70 (human)) [%] | kinase still bound, per cent of control (MAPK10 (human)) [%] | kinase still bound, per cent of control (INSRR (human)) [%] | kinase still bound, per cent of control (MAPK1 (human)) [%] | kinase still bound, per cent of control (PHKG2 (human)) [%] | kinase still bound, per cent of control (HCK (human)) [%] | kinase still bound, per cent of control (FLT4 (human)) [%] | kinase still bound, per cent of control (DCLK3 (human)) [%] | kinase still bound, per cent of control (PTK2B (human)) [%] | kinase still bound, per cent of control (CAMK2D (human)) [%] | kinase still bound, per cent of control (PAK3 (human)) [%] | kinase still bound, per cent of control (STK17B (human)) [%] | kinase still bound, per cent of control (PAK7 (human)) [%] | kinase still bound, per cent of control (TNIK (human)) [%] | kinase still bound, per cent of control (SRMS (human)) [%] | kinase still bound, per cent of control (TAOK1 (human)) [%] | further results
1 | O=C(NC1CC1)c1cccc(-c2ccc3c(NC(=O)C4CC4)n[nH]c3c2)c1 | 100 | 97 | 76 | 70 | 90 | 61 | 95 | 100 | 84 | 100 | 100 | 100 | 100 | 84 | 60 | 100 | 67 | 25 | 93 | 4.5 | kinase still bound, per cent of control (TNK2 (human)): 100%; kinase still bound, per cent of control (SRPK2 (human)): 58%; kinase still bound, per cent of control (MINK1 (human)): 43%; kinase still bound, per cent of control (CHEK1 (human)): 100%; kinase still bound, per cent of control (CDC2L2 (human)): 85%; kinase still bound, per cent of control (LTK (human)): 100%; kinase still bound, per cent of control (PRKAA1 (human)): 60%; kinase still bound, per cent of control (STK32C (human)): 89%; kinase still bound, per cent of control (MAPK12 (human)): 24%; kinase still bound, per cent of control (ADCK4 (human)): 88%; kinase still bound, per cent of control (EPHA1 (human)): 98%; kinase still bound, per cent of control (MST1R (human)): 90%; kinase still bound, per cent of control (MAPK11 (human)): 2.6%; kinase still bound, per cent of control (CSNK1A1L (human)): 100%; kinase still bound, per cent of control (MAPK8 (human)): 40%; kinase still bound, per cent of control (MLTK (human)): 100%; kinase still bound, per cent of control (IGF1R (human)): 100%; kinase still bound, per cent of control (AURKA (human)): 86%; kinase still bound, per cent of control (MAP4K4 (human)): 84%; kinase still bound, per cent of control (MYLK2 (human)): 12%
2 | CCN1CCN(Cc2ccc(Nc3ncc4c(n3)N(C)c3ccccc3C(=O)N4C)cc2C(F)(F)F)CC1 | 100 | 29 | 100 | 84 | 90 | 100 | 100 | 77 | 47 | 24 | 100 | 68 | 96 | 69 | 9.4 | 100 | 81 | 100 | 54 | 0.2 | kinase still bound, per cent of control (TNK2 (human)): 24%; kinase still bound, per cent of control (SRPK2 (human)): 81%; kinase still bound, per cent of control (MINK1 (human)): 68%; kinase still bound, per cent of control (CHEK1 (human)): 57%; kinase still bound, per cent of control (CDC2L2 (human)): 97%; kinase still bound, per cent of control (LTK (human)): 100%; kinase still bound, per cent of control (PRKAA1 (human)): 2.4%; kinase still bound, per cent of control (STK32C (human)): 100%; kinase still bound, per cent of control (MAPK12 (human)): 97%; kinase still bound, per cent of control (ADCK4 (human)): 57%; kinase still bound, per cent of control (EPHA1 (human)): 61%; kinase still bound, per cent of control (MST1R (human)): 100%; kinase still bound, per cent of control (MAPK11 (human)): 82%; kinase still bound, per cent of control (CSNK1A1L (human)): 74%; kinase still bound, per cent of control (MAPK8 (human)): 100%; kinase still bound, per cent of control (MLTK (human)): 65%; kinase still bound, per cent of control (IGF1R (human)): 100%; kinase still bound, per cent of control (AURKA (human)): 0.4%; kinase still bound, per cent of control (MAP4K4 (human)): 81%; kinase still bound, per cent of control (MYLK2 (human)): 88%
3 | Cn1c(=O)n(-c2ccc(C(C)(C)C#N)cc2)c2c3cc(-c4cnc5ccccc5c4)ccc3ncc21 | 100 | 100 | 100 | 100 | 100 | 100 | 100 | 100 | 100 | 100 | 100 | 100 | 100 | 100 | 100 | 100 | 100 | 100 | 100 | 100 | kinase still bound, per cent of control (TNK2 (human)): 100%; kinase still bound, per cent of control (SRPK2 (human)): 100%; kinase still bound, per cent of control (MINK1 (human)): 100%; kinase still bound, per cent of control (CHEK1 (human)): 100%; kinase still bound, per cent of control (CDC2L2 (human)): 100%; kinase still bound, per cent of control (LTK (human)): 33%; kinase still bound, per cent of control (PRKAA1 (human)): 100%; kinase still bound, per cent of control (STK32C (human)): 100%; kinase still bound, per cent of control (MAPK12 (human)): 100%; kinase still bound, per cent of control (ADCK4 (human)): 100%; kinase still bound, per cent of control (EPHA1 (human)): 100%; kinase still bound, per cent of control (MST1R (human)): 100%; kinase still bound, per cent of control (MAPK11 (human)): 100%; kinase still bound, per cent of control (CSNK1A1L (human)): 100%; kinase still bound, per cent of control (MAPK8 (human)): 100%; kinase still bound, per cent of control (MLTK (human)): 100%; kinase still bound, per cent of control (IGF1R (human)): 100%; kinase still bound, per cent of control (AURKA (human)): 100%; kinase still bound, per cent of control (MAP4K4 (human)): 100%; kinase still bound, per cent of control (MYLK2 (human)): 100%
